# Experimental data from PMC9138090, “Study on the Neuroprotective, Radical-Scavenging and MAO-B Inhibiting Properties of New Benzimidazole Arylhydrazones as Potential Multi-Target Drugs for the Treatment of Parkinson’s Disease” (Antioxidants, 2022).
# How the values were obtained:
# [1] = test system: rat brain synaptosomes; assay: 6-OHDA-induced neurotoxicity, synaptosomal viability; format: cell-based; conditions: for protective effect in 6-OHDA model (in words): 10 µM, synaptosomal viability and GSH level
# Protocol: Synaptosomes were prepared from brains of adult male Wistar rats. The brains were homogenized in 10 volume of cold buffer 1, containing 5 mM HEPES and 0.32 M sucrose (pH = 7.4). The brain homogenate was centrifuged twice at 1000× g for 5 min at 4 °C. The supernatant was collected and centrifuged 3 times at 10,000× g for 20 min at 4 °C. The pellet was re-suspended in ice-cold buffer 1. The synaptosomes were isolated by using Percoll reagent to prepare the gradient. Synaptosomes were re-suspended and incubated in buffer 2, containing 290 mM NaCl, 0.95 mM MgCl2 × 6H2O, 10 mM KCl, 2.4 mM CaCl2 × H2O, 2.1 mM NaH2PO4, 44 mM HEPES, and 13 mM D-glucose. Incubations were performed in a 5% CO2 + 95% O2 atmosphere. The content of synaptosomal protein was determined according to the method of Lowry et al. using bovine serum albumin as a standard.
# Synaptosomal viability was measured by (3-(4,5)-dimethylthiazol-2-yl)-2,5-diphenyl tetrazolium bromide)-test, described by Mungarro-Menchaca et al. The synaptosomes were incubated with the compounds and then treated with (3-(4,5)-dimethylthiazol-2-yl)-2,5-diphenyl tetrazolium bromide) solution (0.5 mg/mL) for 1 h at 37 °C. After incubation they were centrifuged at 15,000× g for 1 min. The formed formazan crystals were dissolved in DMSO (Dimethyl sulfoxide). The extinction was measured spectrophotometrically at λ = 580 nm.
# The metabolism and oxidation of dopamine cause reactive oxygen radicals and reactive quinones to be produced, which could lead to neurotoxicity and neurodegeneration. The synaptosomes were incubated with the compounds (10 µM) for 30 min and then 6-hydroxydopamnine (150 mmol/L) was used to induce neurotoxicity. […] After 1 h, they were centrifuged on a microcentrifuge for 1 min at 15,000 rpm. The precipitates were gently mixed with buffer B and glucose and centrifuged for a second time at 15,000 rpm for 1 min. After the second wash, buffer B and glucose were added to the precipitates.
# In the presented experiments, an in vitro assessment of the possible antioxidant and neuroprotective effects of the newly synthetized compounds was performed in a model of 6-OHDA induced toxicity in rat brain synaptosomes. 6-OHDA is a neurotoxicant that structurally resembles dopamine and can be used in different in vivo and in vitro models for neurotoxicity. This model resembles the histological, biochemical, and physiological characteristics of neurodegenerative diseases such as Parkinson’s and Alzheimer’s disease. […] However, their uptake into brain synaptosomes is similar among primates and rodents and they are suitable in vitro models for PD. The main mechanism of 6-OHDA toxicity includes induction of oxidative stress. It undergoes auto-oxidation or metabolic degradation to p-quinone and produces hydrogen peroxide, superoxide, and hydroxyl radicals. The process causes lipid peroxidation, protein oxidation, and DNA oxidation and finally results in oxidative stress and mitochondrial dysfunction. Rat brain synaptosomes were pretreated with compounds 3e, 3h, 3i, 3m, melatonin, and rasagiline (10 μM); after that, the samples were subjected to 6-OHDA (150 mmol/L, 1 h). The protective effects were evaluated by measurement of synaptosomal viability (MTT-test) and GSH levels (Figure 3).
# [2] = Superoxide scavenging, xanthine/xanthine oxidase NBT assay; format: biochemical; conditions: for change in sample absorbance vs. controls (in words): whole tested concentration range
# Protocol: Superoxide radicals scavenging activity (enzymatic assay): The assay comprises the preparation of 1 mL PBS samples containing the following substances: 1 mmol/l xanthine; 20 µL xanthine oxidase (100 IU/L); 0.04 mmol/L NBT; either the tested hydrazone or buffer for the controls. The samples were incubated at 37 °C and the absorbance was measured at 560 nm.
# The results from both assays have been presented as a percentage of the control sample.
# The potency of the compounds selected as the most promising from the cell model systems and hMAOB inhibitory studies was estimated against enzymatically (xanthine/XO system) and non-enzymatically (KO2/NBT) produced superoxide radicals (Figure 7). In the xanthine-xanthine oxidase system the generation of O2^−^● is a result of an enzymatic reaction. The molecular mechanism of action of the XO enzyme is associated with catalysation of the reaction of oxidation of hypoxanthine and xanthine and generation of uric acid. During the process of reoxidation of the enzyme, the molecular oxygen acts as an electron acceptor and the formation of physiologically important ROS, such as the superoxide radical (O2^−^●) and hydrogen peroxide (H2O2), has been observed. In the potassium superoxide-containing systems, superoxide radical generation is due to the direct addition of the KO2 to the water sample solution. The release of a superoxide anion was estimated via NBT reduction activity, indicating detectable superoxide anion levels. The application of these two alternative model systems will afford the possibility to perform a more accurate interpretation of the obtained results. Since in the enzyme-free model system, the release of the superoxide in the small sample volume is a very fast process, there is a risk of local effects that is avoided in the xanthine-xanthine oxidase system. The use of enzyme reaction provides a relatively slow generation of the superoxide radical and steady concentration.
structure (smiles),measurement,setting,value
"O=C(CCn1c(=S)n(CCC(=O)NN=Cc2cccc(O)c2O)c2ccccc21)NN=Cc1cccc(O)c1O [3h, 3,3′-(2-Thioxo-1H-benzo[d]imidazole-1,3(2H)-diyl)bis(N′-(2,3-dihydroxybenzylidene)propanehydrazide)]",increase of synaptosomal viability vs. 6-OHDA treatment,"[1]; 10 µM pretreatment, 6-OHDA 1 h",71%
same,"% of the control ratio, NBT reduction",[2]; maximal tested concentration,64%
"O=C(CCn1c(=S)n(CCC(=O)NN=Cc2ccccc2O)c2ccccc21)NN=Cc1ccccc1O [3e, 3,3′-(2-Thioxo-1H-benzo[d]imidazole-1,3(2H)-diyl)bis(N′-(2-hydroxybenzylidene)propanehydrazide)]",protective effect in 6-OHDA model (in words),[1],less pronounced protective effects
same,change in sample absorbance vs. controls (in words),[2],did not induce statistically significant change
"O=C(CCn1c(=S)n(CCC(=O)NN=Cc2ccc(O)cc2O)c2ccccc21)NN=Cc1ccc(O)cc1O [3i, 3,3′-(2-Thioxo-1H-benzo[d]imidazole-1,3(2H)-diyl)bis(N′-(2,4-dihydroxybenzylidene)propanehydrazide)]",protective effect in 6-OHDA model (in words),[1],less pronounced protective effects
same,decrease of NBT reduction,[2]; xanthine/xanthine oxidase assay,15%
"COc1ccc(C=NNC(=O)CCn2c(=S)n(CCC(=O)NN=Cc3ccc(OC)cc3O)c3ccccc32)c(O)c1 [3m, 3,3′-(2-Thioxo-1H-benzo[d]imidazole-1,3(2H)-diyl)bis(N′-(2-hydroxy-4-methoxybenzylidene)propanehydrazide)]",protective effect in 6-OHDA model (in words),[1],less pronounced protective effects
same,change in sample absorbance vs. controls (in words),[2],did not induce statistically significant change
